# Values joined by “and” are separate entries in the source; they are usually repeats but may differ in a detail not shown here. Identical values can stand only once. Like-named read-outs stand apart in the source and are kept apart here.
# Tests used:
# LieIF4A [1] = biological target: T1, LieIF4A (Leishmania infantum, UniProt A4HRK0); conditions: cited from earlier work; for Ki: ATPase kinetics, calculated from data in ref 7; for IC50: read-out: LieIF4A ATPase assay IC50
# T1 construct: His6; made in house; host or cells: Escherichia coli Rosetta
# T1 sequence (A4HRK0 1-403): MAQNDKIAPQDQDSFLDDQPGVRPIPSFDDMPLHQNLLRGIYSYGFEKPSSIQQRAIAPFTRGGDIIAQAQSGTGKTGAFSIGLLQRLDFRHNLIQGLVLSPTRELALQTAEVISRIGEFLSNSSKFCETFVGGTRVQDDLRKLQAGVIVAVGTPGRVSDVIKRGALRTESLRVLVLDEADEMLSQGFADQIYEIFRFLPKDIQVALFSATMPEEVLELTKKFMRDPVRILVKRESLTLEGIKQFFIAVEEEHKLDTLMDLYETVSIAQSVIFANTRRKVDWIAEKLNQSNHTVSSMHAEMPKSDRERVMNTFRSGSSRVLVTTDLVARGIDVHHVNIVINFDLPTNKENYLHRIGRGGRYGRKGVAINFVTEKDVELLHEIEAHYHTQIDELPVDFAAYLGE
# LieIF4A [2] = biological target: T1, LieIF4A; assay: RNA-dependent ATPase assay (Malachite green), LieIF4A; type: biochemical
# Procedure: (§1) A colorimetric assay was used to measure the phosphate released during ATP hydrolysis based on Malachite green, as previously described in [8, 9]. Reactions were performed at 37 °C in 96 well microtiter plates in a final volume of 50 μL. The reaction buffer contained 50 mM potassium acetate, 20 mM MES pH 6, 2 mM dithiothreitol (DTT), 0.1 mg/mL BSA and various concentrations of whole yeast RNA (Type XI-C, Sigma-Aldrich, St. Louis, MO, USA). 5 mM and 1 mM magnesium acetate were added to the LieIF4A and eIF4AMus reactions, respectively. Reactions were initiated by adding ATP; when not noted otherwise, the ATP concentration used was 1 mM. Reactions were stopped after various times with ethylenediaminetetraacetic acid (EDTA, final concentration 60 mM). The absorption at 630 nm was converted to phosphate concentration by a reference curve generated from a dilution series of a known phosphate concentration (0.1 mM Pi standard; Innova Biosciences, Cambridge, UK). Reaction velocities were determined by a linear regression fit of the phosphate generated against time. Only the initial linear phases of the curves were used. Velocities were determined for three independent experiments for each reaction condition. The Michaelis –Menten (Km) and the inhibition kinetics (Ki) constants were obtained by nonlinear regression using GraphPad Prism 8 (GraphPad Software).
# eIF4AMus [3] = biological target: T2, eIF4AMus (Mus musculus, UniProt P60843); assay: RNA-dependent ATPase assay (Malachite green), eIF4AMus; type: biochemical
# T2 construct: His6; made in house; host or cells: Escherichia coli Rosetta
# T2 sequence (P60843 whole entry): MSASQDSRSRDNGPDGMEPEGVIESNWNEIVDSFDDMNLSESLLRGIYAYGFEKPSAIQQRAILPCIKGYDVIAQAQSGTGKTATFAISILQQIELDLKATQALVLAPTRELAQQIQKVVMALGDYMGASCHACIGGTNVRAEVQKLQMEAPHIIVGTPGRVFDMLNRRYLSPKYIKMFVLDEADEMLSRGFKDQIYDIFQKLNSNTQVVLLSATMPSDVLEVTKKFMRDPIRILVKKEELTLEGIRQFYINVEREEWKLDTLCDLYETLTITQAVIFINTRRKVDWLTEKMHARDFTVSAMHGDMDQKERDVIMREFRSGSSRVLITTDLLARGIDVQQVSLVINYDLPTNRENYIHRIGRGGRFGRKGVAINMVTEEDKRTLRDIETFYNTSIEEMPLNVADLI
# Procedure: as §1
# [4] = tested on: L. infantum promastigotes; set-up: method as in PMID 21417924; conditions: cited from earlier work
# [5] = tested on: L. infantum promastigotes (LV50); assay: MTT viability assay on promastigotes; type: cell-based, Leishmania infantum; conditions: for IC50: Leishmania infantum, stationary phase promastigotes, 24 h
# Procedure: The MON1 L. infantum laboratory strain LV50 originating from a visceral leishmaniasis case (Laboratory of Molecular Epidemiology and Experimental Pathology, Institut Pasteur de Tunis) was used to test the effect of the chemical compounds. Promastigote cultures were inoculated in RPMI-1640 media supplemented with 2 mM L-glutamine, 100 U/mL penicillin, 100 U/mL streptomycin and 10% (v/v) heat-inactivated fetal bovine serum at 22 °C. Promastigotes were collected at the beginning of the stationary phase (day 5), counted, centrifuged and seeded at 10^6/mL in 10 mL of complete media.
# The effect of the chemical compounds on the viability of L. infantum promastigotes was evaluated by a colorimetric MTT (3-(4,5-dimethylthiazol-2yl)-2,5-diphenyl tetrazolium bromide) 96-well plate assay as previously described in [7]. This test consisted of a reduction of tetrazolium salt to a […] crystal (blue formazan) by the succinate dehydrogenase activity of mitochondria in living cells, which can be quantified by spectrophotometry. Briefly, 90 μL of LV50 promastigotes harvested from the stationary growth phase of 10^6/mL culture were added to a 96-well culture plate with various concentrations of the selected compounds to obtain a final volume of 100 µL, compound concentrations of 1.5–100 μM, and a final concentration of 1% DMSO per well. Plates were incubated at 25 °C for 24 h.
# (§2) Mock-treated THP-1-derived macrophages and promastigotes (1% DMSO) were used as controls. After 24 h of incubation, MTT solution was added at 1 mg/mL to each well and incubated at the appropriate cell temperatures for 4 h. Then, 150 μL of DMSO was added to each well to dissolve the blue formazan, and the optical density (OD) was measured at 560 nm with a microplate reader (MULTISCAN, Labsystems, Thermo Fisher Scientific, Ratastie, Finland).
# The promastigotes and THP-1-derived macrophage viabilities were expressed as the percentage of the viable promastigotes or cells in treated conditions relative to the 1% DMSO cultures, as previously described in [7]. […]
# [6] = MTT cytotoxicity assay on macrophages; type: cell-based, human; conditions: human
# Procedure: (§3) The human myelomonocytic cell line, THP-1, was ordered from the American Type Culture Collection (ATCC, TIB-202). Cells were maintained in RPMI 1640/Glutamax-I media (Gibco BRL, Bleiswijk, The Netherlands) supplemented with 10% heat-inactivated fetal calf serum (Gibco, Bleiswijk, The Netherlands) plus penicillin G (100 U/mL) and streptomycin ([…]). THP-1 cells were differentiated to macrophages after their treatment with 20 ng/mL phorbol […] (PMA) (Sigma, St. Louis, MO, USA) for 48 h at 37 °C, 5% CO2. The viability of THP-1 mature macrophage-like cells was determined to be >97% by the Trypan blue dye exclusion assay.
# (§4) For the cytotoxicity assay, we used the THP-1-derived macrophages (50,000 cells/well) seeded in 96-well plates and treated with serial concentrations of compounds at the same conditions as for the promastigotes for 24 h.
# as §2
# (§5) The promastigotes and THP-1-derived macrophage viabilities were expressed as the percentage of the viable promastigotes or cells in treated conditions relative to the 1% DMSO cultures, as previously described in [7]. The half maximal inhibitory concentration (IC50) and 50% cytotoxic concentrations (CC50) values were calculated for all the tested compounds by interpolation.
# [7] = tested on: intramacrophage amastigotes of L. donovani (LV9); set-up: method as in PMID 16949702; conditions: cited from earlier work
# eIF4AMus [8] = biological target: T2, eIF4AMus; set-up: method as in PMID 29346371; conditions: ATPase kinetics, calculated from data in ref 7, cited from earlier work
# [9] = tested on: L. infantum promastigotes (LV50); set-up: method as in PMID 29346371; conditions: cited from earlier work
# [10] = tested on: THP-1-derived macrophages; conditions: cited from earlier work
# [11] = tested on: THP-1-derived macrophages; assay: MTT cytotoxicity assay on macrophages; type: cell-based, human; conditions: MTT, 24 h; read-out: Uninfected THP-1-Derived Macrophages CC50
# Procedure: as §3, §4, §2, §5
# [12] = L. infantum, read-out: Anti-leishmanial activity IC50
molecule,measurement,setting,value
Nc1ncnc2c1ncn2[C@@H]1O[C@H](COP(=O)(O)OP(=O)(O)OP(=O)(O)O)[C@@H](O)[C@H]1O [ATP],Km,"LieIF4A [1]; saturating total yeast RNA, control DMSO, no test compound, read-out: Km (ATP hydrolysis)",150 ± 20 µM
COc1ccc([C@@]23Oc4cc(OC)cc(OC)c4[C@]2(O)[C@H](O)[C@H](C(=O)N(C)C)[C@H]3c2ccccc2)cc1 [Rocaglamide A],Increase of ATPase activity,"LieIF4A [2]; 50 µM rocaglamide A vs no compound, 1 ng/µL yRNA",1.7 fold
same,Relative activity (to maximum velocity of eIF4AMus without rocaglamide A),"LieIF4A [2]; 50 µM rocaglamide A, 1 ng/µL yRNA",0.80 ± 0.07
same,ATPase activity with compound relative to saturating RNA without compound (less),"LieIF4A [2]; 50 µM rocaglamide A, 1 ng/µL yRNA vs 340 ng/µL yRNA",2.3 fold
same,V (ATPase reaction velocity),"LieIF4A [2]; 50 µM rocaglamide A, 1 ng/µL yRNA, 1 mM ATP, 820 nM protein, 10% DMSO",0.77 ± 0.07 µM/min
same,Increase of ATPase activity,"eIF4AMus [3]; 50 µM rocaglamide A vs no compound, 55 ng/µL yRNA",6.2 fold
same,Relative activity (to maximum velocity of eIF4AMus without rocaglamide A),"eIF4AMus [3]; 50 µM rocaglamide A, 55 ng/µL yRNA",2.65 ± 0.03
same,ATPase activity with compound relative to saturating RNA without compound (more),"eIF4AMus [3]; 50 µM rocaglamide A, 55 ng/µL yRNA vs 340 ng/µL yRNA",~2.7 fold
same,V (ATPase reaction velocity),"eIF4AMus [3]; 50 µM rocaglamide A, 55 ng/µL yRNA, 1 mM ATP, 1200 nM protein, 10% DMSO",2.55 ± 0.03 µM/min
same,EC50,[4],16.5 µM
CC(C)CCC[C@@H](C)[C@H]1CC[C@H]2[C@@H]3[C@H](N)C=C4C[C@@H](O)CC[C@]4(C)[C@H]3CC[C@]12C [7-α-aminocholesterol],Higher affinity (Ki) for LieIF4A than for eIF4AMus,LieIF4A [2]; Ki eIF4AMus / Ki LieIF4A,~ 9.4 fold
same,Ki,"LieIF4A [2]; Ki, ATPase kinetics, saturating yRNA",8.6 µM and 8.57 µM
same,Ki,"eIF4AMus [3]; ATPase kinetics, saturating yRNA",80.5 µM
same,IC50,[5],2.29 ± 0.4 µM
same,CC50 at 24 h,[6]; Uninfected THP-1-Derived Macrophages CC50,17.5 ± 3.4 µM
same,IC50,[7],1.31 µM
CC(C)CCC[C@@H](C)[C@H]1CC[C@H]2[C@@H]3C[C@H](N)[C@H]4C[C@@H](O)CC[C@]4(C)[C@H]3CC[C@]12C [6-α-aminocholestanol],Ki,LieIF4A [1],19.5 ± 3.27 µM
same,IC50,LieIF4A [1],160 µM
same,Ki,eIF4AMus [8]; read-out: Ki,20.2 µM
same,IC50,[9]; [12],3.6 µM
same,IC50,"[9]; MTT, measured using data in ref 7, read-out: Promastigotes LV50 IC50",3.64 ± 0.1 µM
same,CC50,[10],35.2 ± 1.3 µM
CC(C)CCC[C@@H](C)[C@H]1CC[C@H]2[C@@H]3CC(=O)[C@H]4C[C@@H](O)CC[C@]4(C)[C@H]3CC[C@]12C [6-ketocholestanol],IC50,[5],37 ± 6.6 µM
same,CC50 at 24 h,"[6]; THP-1-derived macrophages (PMA-differentiated, uninfected), MTT, 24 h, read-out: Uninfected THP-1-Derived Macrophages CC50",77 µM
same,CC50,[11],76.9 ± 2.1 µM
same,Ki,LieIF4A [1],316 ± 80.7 µM
same,IC50,LieIF4A [1],> 1000 µM
same,Ki,eIF4AMus [8],485 ± 94.5 µM
same,IC50,[9]; [12],39.1 µM
CC(C)CCC[C@@H](C)[C@H]1CC[C@H]2[C@@H]3[C@@H](CN)C=C4C[C@@H](O)CC[C@]4(C)[C@H]3CC[C@]12C [7-β-aminomethylcholesterol],IC50,[7],1.3 µM
7-α/β-aminocholesterol,IC50,[7],1.3 µM
CC(C)CCC[C@@H](C)[C@H]1CC[C@H]2[C@@H]3CC=C4C[C@@H](O)CC[C@]4(C)[C@H]3CC[C@]12C [Cholesterol],Effect on ATPase kinetics,LieIF4A [2]; 300 µM compound,no effect
same,Effect on ATPase kinetics,eIF4AMus [3]; 300 µM compound,no effect
same,Effect on promastigotes viability,[5]; 24 h exposure,no effect
